Read-outs that look alike come from different tables or passages of the source.

For data set [1], the system named is spheroid lines HC6T, HC9T, and HC20T. Kind of data set: Drug sensitivity tests in spheroids (GEI). Type of data set: cell-based, human. To be noted: dose-dependent, FIGS. 16A-16C. The method, then: (§1) Luciferase-expressing spheroids were cultured in 2-3 wells of a 12-well cell-culture plate (in 60-90 μl Matrigel). […] From the spheroid solution thus obtained, 300 μl was taken and the cells were resuspended in an equal volume of Matrigel. The spheroid cells in Matrigel were distributed to the wells of 96-well “white” cell-culture plates (Corning; 3 μl per well) on a plate heater at 37° C., and cultured overnight in 100 μl/well of the medium. Spheroids were rinsed with 100 μl/well of PBS, and incubated with 50 μl of 150 μg/ml luciferin in phenol red-free DMEM/F12 medium (Nacalai) for 10 min at room temperature (20-28° C.). Luminescence was scored using a conventional imaging device (Gel Doc XR+, BioRad). After this initial measurement, spheroids in each well were rinsed with 100 μl of PBS, and cultured in 100 μl of the medium. Luminescence was determined on day 1 and day 3. Effects of a drug was determined by obtaining GEI (growth effect index), which is the growth rate of a group treated with the drug compared to a control group (a solvent-treated group). Results were shown using means in three independent experiments each conducted in triplicate.
The spheroid lines shown in Table 3 were used in this example.

Data set [2] relates to two CRC-TIC spheroid lines (HC18T and HC21T). Kind of data set: Titration experiments, dose-dependent effects on growth (GEI). As to conditions: for effect on spheroid growth in titration: at 10 μM. It is filed as cell-based, human. The method, then:
Shown are the plots and means of GEI in three independent experiments. Asterisks indicate significant differences from the solvent-only group (P<0.05; analyzed using one-way ANOVA followed by Tukey's post-test).
Shown are the mean GEI±SEM (independent experiments, n=3). Asterisks indicate significant differences from the solvent-only (0 μM) group (P<0.05; analyzed using one-way ANOVA followed by Tukey's post-test).
(§2) Luminescence was determined daily or 3 days later. The cell growth rate for each well was estimated as the proportion of photon counts to those on day 1. Four or six replicates (with similar statistical power) were analyzed for each data point in all experiments except for the chemical compound screening assays.

In data set [3] the test system is CRC spheroids (HC18T, HC21T, and HC52T). As to the kind of experiment: Morphology of spheroids after treatment with cAMP-signaling activators (phase-contrast micrographs). Type of data set: cell-based, human. As to conditions: 10 μM CV1808, 1 μM NECA, or 1 μM forskolin for five days.
In data set [4] the test system is three luciferase-expressing CRC-TIC spheroid lines (HC21T, HC18T, HC25T). Kind of data set: Chemical library screening of 80 agonists or activators for growth-promoting effects. It is filed as cell-based. As to conditions: Homo sapiens, read-out: stimulation of spheroid growth. The method, then:
For growth monitoring assays, luciferase-expressing spheroids were cultured in 2-3 wells of a 12-well cell-culture plate. […] The spheroid cells were resuspended in Matrigel, distributed to the wells of 96-well “white” cell-culture plates (Corning; 3 μl per well) on a plate heater at 37° C., and cultured overnight in 100 μl/well of the medium. Spheroids were rinsed with 100 μl/well of PBS, and incubated with 50 μl of 150 μg/ml luciferin in phenol red-free DMEM/F12 medium (Nacalai) for 10 min at room temperature […]. Luminescence was scored using a conventional imaging device (Gel Doc XR+, BioRad). After this initial measurement, spheroids in each well were rinsed with 100 μl of PBS, and cultured in 100 μl of the medium. Luminescence was determined daily or 3 days later. The cell growth rate for each well was estimated as the proportion of photon counts to those on day 1.

Data set [5] has as its system eleven CRC-TIC spheroid lines and four normal spheroid lines. As to the kind of experiment: Dose-dependent effects of SB431542 on the growth of spheroid lines (GEI). It is filed as cell-based, human. The method, then:
Luciferase-expressing cancer and normal spheroids were cultured in the cancer medium and the eL-WRN medium each containing EGF and bFGF, respectively, in the presence of SB431542 at the indicated concentrations. Tested were eleven CRC-TIC spheroid lines (circle) and four normal spheroid lines (square). Shown are the mean GEI of four replicates.
as §2

For data set [6], the system named is CRC-TIC spheroid lines that carried wild-type RAS/RAF genes (HC6T, HC9T, HC11T, HC21T). Kind of data set: Stimulation of spheroid growth with EGF and/or bFGF, luminescence-based growth monitoring (GEI). As to conditions: HC6T, HC9T. Type of data set: cell-based, human. How it is done: as §2
To investigate whether EGF and bFGF helped spheroid proliferation in the cancer medium as described above, we cultured with EGF and/or bFGF four slow-growing CRC-TIC spheroid lines that carried wild-type RAS/RAF genes (HC6T, HC9T, HC11T, HC21T). Because EGF/bFGF facilitated the growths of these spheroid lines substantially (FIG. 3A), we then quantified their effects by the luminescence-based growth monitoring. To calibrate the effects, we introduced the growth effect index (GEI) defined as the relative growth rate of a treated group to that of its solvent-only control in each paired assay. […] The extents of growth promotion by EGF and bFGF were different depending on the spheroid line. […] In another spheroid line (HC21T), the effects were similar between the two growth factors (FIG. 3B).

The subject of data set [7] is HC21T spheroid line. As to the kind of experiment: Titration experiment, growth promotion (GEI). Type of data set: cell-based, human. The method, then: as §2
Data set [8] has as its system normal colonic epithelial stem cell spheroids. Kind of data set: Drug sensitivity tests in spheroids (GEI). Type of data set: cell-based, human. As to conditions: concentrations below 1 μM. How it is done:
as §1

The test system of data set [9] is HC6T-PDSX and HC20T-PDSX tumors. As to the kind of experiment: Histological examinations of PDSX tumors at day 21 (H&E, Ki67). It is filed as in vivo, nude mice (BALB/c-nu). To be noted: erdafitinib monotherapy group. The method, then:
Paraffin-embedded tissues of PDSXs were prepared according to the standard procedures. Sections were stained with H&E or immunostained for Ki67.

The subject of data set [10] is HC6T-PDSX mice. Kind of data set: Drug sensitivity tests in PDSX models (tumor volume). Type of data set: in vivo, nude mice (BALB/c-nu). To be noted: 21 days; erdafitinib 10 mg/kg orally, cetuximab 250 μg i.p. twice a week. The method, then: Patient-derived spheroids were cultured in a 12-well culture plate to become confluent (4×10^5-4×10^6 cells/plate) and the spheroids were rinsed twice with PBS and placed in a 1.5 ml tube with Matrigel. The volume of the spheroid suspension was adjusted to 100 μl with PBS and the suspension thus obtained was subcutaneously injected into 4-6 week female nude mice (BALB/c-nu) at 1×10^5-9×10^5 cells/mouse.
PDSX mice were subjected to drug-dosing test when the mean estimated tumor volume reached 300 mm^3. Tumor volume (mm^3) was estimated by the following formula: length×width^2/2. We excluded the following kinds of tumors from the tests as outliers; too small (<100 mm^3), spontaneously shrinking, remaining unchanged in size, or deeply implanted and difficult to be measured.
The day of the dosing start was defined as day 0, with the tumor volume of each mouse measured twice a week for 3 weeks (days 0-21).
The relative tumor volume was estimated by calibration to the initial tumor volume on day 0. To evaluate the drug dosing effects, the ratio of tumor volume on day 21 to that on day 0 was compared among the four groups.

Regarding AZD4547, the “growth of spheroid lines (GEI)” value in data set [1] was “suppressed the growth”.
Regarding `COCc1c(-c2cc3cc(C)cc(OC)c3s2)c2c(N)ncnn2c1CN1CCNC(=O)C1` [rogoratinib], the “growth of spheroid lines (GEI)” value in data set [1] was “suppressed the growth”.
Turning to `Nc1nc(Nc2ccccc2)nc2c1ncn2[C@@H]1O[C@H](CO)[C@@H](O)[C@H]1O` [CV1808, 2-phenylaminoadenosine], in data set [2] (dose-dependent, FIG. 9A), the “growth-promoting effect compared with NECA” value is “growth-promoting effect though weaker than that of NECA”. In addition, the “morphological changes in spheroids” value in data set [3] is “cell flattening and increased sphere size”. Moreover, in data set [4] (10 μM each), the activation at 10 µM is more than 25%.
Regarding `CCN1CCN(c2ccc(Nc3cc(N(C)C(=O)Nc4c(Cl)c(OC)cc(OC)c4Cl)ncn3)cc2)CC1` [BGJ398], in data set [1], the “growth of spheroid lines (GEI)” value is “suppressed the growth”.
In the case of `C=CC(=O)N[C@H]1CCOC[C@H]1Nc1ncc2cc(-c3c(Cl)c(OC)cc(OC)c3Cl)ccc2n1` [BLU554], the “growth of spheroid lines (GEI)” value in data set [1] is reported as “suppressed the growth”.
Turning to `CCCCCCCCc1ccc(-c2ccc(C(=O)O)cc2)cc1` [AC55649, 4′-Octyl-[1,1′-biphenyl]-4-carboxylic acid], the activation at 10 µM in data set [4] (10 μM each) was more than 25%.
For the molecule `NC(=O)c1ccc(-c2nc(-c3ccc4c(c3)OCO4)c(-c3ccccn3)[nH]2)cc1` [SB431542, 4-[4-(1,3-benzodioxol-5-yl)-5-(2-pyridinyl)-1H-imidazol-2-yl]benzamide], the “effect on spheroid growth” value in data set [5] (at 10 μM) was “growth inhibition”. The “effect on cancer versus normal spheroids” value in [5] (indicated concentrations, FIG. 7A) is “effects on cancer spheroids were less than those on normal spheroids”.
As to `CCCc1c(OCCCOc2ccc(OCC(=O)O)cc2)ccc(C(C)=O)c1O` [L-165,041, [4-[3-(4-Acetyl-3-hydroxy-2-propylphenoxy)propoxy]phenoxy]acetic acid], the activation at 10 µM in data set [4] (10 μM each) was more than 25%.
Regarding `CN[C@H](CC(=O)O)C(=O)O` [NMDA, N-Methyl-D-aspartic acid], in [4], the activation at 10 µM was more than 25%.
With `CCn1c(=O)[nH]c2cc(Cl)c(Cl)cc21` [DCEBIO, 5,6-Dichloro-1-ethyl-1,3-dihydro-2H-benzimidazol-2-one], in data set [4] (10 μM each), the activation at 10 µM is more than 25%.
For `Nc1nc2c(ccc3ccccc32)s1` [SKA-31, Naphtho[1,2-d]thiazol-2-ylamine], in data set [2], the “effect on spheroid growth in titration” value is listed as “significant effects”. The activation at 10 µM in data set [4] (10 μM each) was more than 25%.
For the molecule `CC(C)(Sc1ccc(CCN(CCCCC2CCCCC2)C(=O)NC2CCCCC2)cc1)C(=O)O` [GW7647, 2-methyl-2-[[4-[2-[[(cyclohexylamino)carbonyl](4-cyclohexylbutyl)amino]ethyl]phenyl]thio]-propanoic acid], in data set [4] (10 μM each), the activation at 10 µM is more than 25%.
For `Cc1cc(SCc2sc(-c3ccc(C(F)(F)F)c(F)c3)nc2C)ccc1OCC(=O)O` [GW0742, [4-[[[2-[3-fluoro-4-(trifluoromethyl)phenyl]-4-methyl-5-thiazolyl]methyl]thio]-2-methylphenoxy]-acetic acid], the “effect on spheroid growth in titration” value in data set [2] is listed as “significant effects”. In addition, the activation at 10 µM in [4] was more than 25%.
Turning to “bFGF: basic fibroblast growth factor, recombinant human protein”, the “extent of growth promotion, bFGF versus EGF” value in data set [6] was “more effective than EGF”.
The term EC50 denotes the concentration that produces a half-maximal response. A high value points to weaker potency. With `CCNC(=O)[C@H]1O[C@@H](n2cnc3c(N)ncnc32)[C@H](O)[C@@H]1O` [NECA, 5′-(N-ethyl-carboxamido)-adenosine], in data set [3], the “morphological changes in spheroids” value was “cell flattening and increased sphere size”. Moreover, in data set [7], the concentration giving a half-maximal response (EC50) stood at 195 nM.
In the case of `COc1cc(OC)cc(N(CCNC(C)C)c2ccc3ncc(-c4cnn(C)c4)nc3c2)c1` [erdafitinib], the “growth of normal spheroids” value in data set [8] is recorded as “hardly suppressed the growth”. The “tumors that disappeared (complete response)” value in data set [9] is “One of three”. Also, the “tumor volume versus control” value in [10] was “reduced the tumor volume”. Moreover, the “growth of spheroid lines (GEI)” value in data set [1] was “suppressed the growth”.
Take `COC(=O)C(Cc1ccc(OCCn2c(=O)sc3cc(C(=O)c4ccccc4)ccc32)cc1)C(=O)OC` [compound 526948, [[4-[2-(6-Benzoyl-2-oxo-3(2H)-benzothiazolyl)ethoxy]phenyl]methyl]-1,3-propanedioic acid dimethyl ester]: the activation at 10 µM in data set [4] (10 μM each) is more than 25%.

(Values after patent publication US20210147812A1, “Method of Preparing Cancer Spheroid and Method of Selecting Colorectal Cancer Patient” (Kyo Diagnostics K.K., priority 2017, published 2021).)
